Here are results for 95 sequences from the OligoGym collection.

Bases are written 5' to 3'; sugars and linkages follow in the same order, as letters with counts (s phosphorothioate, o phosphodiester; PS: all linkages phosphorothioate). The collection does not say whether C is 5-methylated. l = locked nucleic acid (LNA); d = 2'-deoxy (DNA)

The first series concerns the target STC1. Kind of series: rat primary cortical neurons, FLIPR, 25 uM ASO.
In the case of AACATTCAAGCCTTTC (sugars l3 d9 l4, PS), the calcium oscillation score is 109 % of control. In the case of ACATTCAAGCCTTTCC (sugars l4 d10 l2, PS), the calcium oscillation score is 81.6 % of control. The same measure, in the same setting: next, ACCTGTAACTACTTCC (sugars l3 d11 l2, PS): 100 % of control. On the same count and under the same terms, in the case of “AGCTATTTATATTCCAC (sugars l2 d11 l4, PS)” it was 122 % of control; in that of ATAGTTATTCCATTCC (sugars l4 d10 l2, PS), 105 % of control. For the sequence ATCAATATTATTCTTCT (sugars l5 d8 l4, PS), the calcium oscillation score was 122 % of control. Still for that read-out and setting: in the case of “ATTATTCTTCTGTTTCC (sugars l2 d11 l4, PS)” it was 67.6 % of control; in that of CAACATTCAAGCCTTT (sugars l5 d7 l4, PS), 89.1 % of control; in that of “CTAATTATATATTTCCAC (sugars l4 d10 l4, PS)”, 119 % of control. Same read-out and setting: in the case of “CTATTTATATTCCACAG (sugars l4 d11 l2, PS)” it was 69.8 % of control.

Turning to TAGTTATTCCATTCCC (sugars l2 d12 l2, PS), the calcium oscillation score was 92.3 % of control. With “TAGTTATTCCATTCCCA (sugars l2 d13 l2, PS)”, the calcium oscillation score is 99.3 % of control. As for “TATTATTCTTCTGTTTC (sugars l3 d10 l4, PS)”, the calcium oscillation score is 53.4 % of control. Same read-out and setting: next, “TATTTATATTCCACAGT (sugars l3 d10 l4, PS)”: 107 % of control; “TCAATATTATTCTTCTG (sugars l2 d11 l4, PS)”: 35.4 % of control. Turning to “TTACAAGTCATTTCCCT (sugars l4 d11 l2, PS)”, the calcium oscillation score was 91.8 % of control. Same read-out and setting: next, TTACCCAAATACACACA (sugars l4 d9 l4, PS): 143 % of control; “TTACCCAAATACACACAT (sugars l4 d10 l4, PS)”: 137 % of control. In the case of “TTACCCAAATACACACATA (sugars l3 d12 l4, PS)”, the calcium oscillation score was 119 % of control.

A further series has as its target Tau. The experiment in a line: rat primary cortical neurons, FLIPR, 25 uM ASO.
Take TTGGAGCCTACATAGA (sugars l3 d10 l3, PS): the calcium oscillation score is 0 % of control.

As to “TTGGAGTGCTCTTAGCATCA (sugars l3 d14 l3, PS)”, the calcium oscillation score is 7.78 % of control. Consider TTGGATCAGAGGGTCT (sugars l3 d10 l3, PS), for which the calcium oscillation score is 11.1 % of control.

For TTGGCGTTCTCGCGGA (sugars l3 d10 l3, PS), the calcium oscillation score was 0 % of control. Consider TTGGCTTTGGCGTT (sugars l3 d8 l3, PS), for which the calcium oscillation score was 96.2 % of control. On the same count and under the same terms, in the case of TTGGCTTTGGCGTTCT (sugars l3 d10 l3, PS) it was 74.5 % of control. On the same count and under the same terms, next, TTGGGTGGAGTACGGA (sugars l3 d10 l3, PS): 0 % of control; “TTGGGTGGAGTACGGACCAC (sugars l3 d14 l3, PS)”: 0 % of control. In the case of TTGTACACGATCTCCG (sugars l3 d10 l3, PS), the calcium oscillation score was 55.2 % of control. TTGTAGACTATTTG (sugars l3 d8 l3, PS): the calcium oscillation score was 63.3 % of control. Regarding “TTGTAGACTATTTGCACACT (sugars l3 d14 l3, PS)”, the calcium oscillation score is 40.7 % of control. As to “TTGTCCAGGGACCCAATCTT (sugars l3 d14 l3, PS)”, the calcium oscillation score is 3.32 % of control. Same read-out and setting: in the case of TTGTGATGCAGGAG (sugars l3 d8 l3, PS) it was 0 % of control. For the sequence “TTTAACTCAAATCAATTCT (sugars l4 d11 l4, PS)”, the calcium oscillation score was 72.6 % of control. Same read-out and setting: next, “TTTAACTCAAATCAATTCTC (sugars l4 d12 l4, PS)”: 65.7 % of control; “TTTAATTCACACAACAAACT (sugars l4 d12 l4, PS)”: 89.1 % of control. On the same count and under the same terms, in the case of TTTACAAAGTCCACTTT (sugars l4 d9 l4, PS) it was 53 % of control; in that of TTTACACCACACTGTC (sugars l3 d10 l3, PS), 83.3 % of control; in that of TTTACCAATTTGCCTAA (sugars l4 d9 l4, PS), 43.1 % of control. Still for that read-out and setting: next, “TTTACCCATCTTAATTCATT (sugars l4 d14 l2, PS)”: 78.1 % of control; TTTAGCAGAGGAACGT (sugars l3 d10 l3, PS): 15.6 % of control; “TTTAGTTTTCCCACCCAA (sugars l2 d13 l3, PS)”: 69.4 % of control. Take TTTATAGGTGCATAGT (sugars l2 d10 l4, PS): the calcium oscillation score was 0 % of control. Still for that read-out and setting: next, “TTTATCCCTCCATGATT (sugars l2 d12 l3, PS)”: 58.8 % of control; “TTTATGATGGATGTTGCCTA (sugars l3 d14 l3, PS)”: 6.64 % of control; “TTTATTAATTCATAAATGAC (sugars l3 d14 l3, PS)”: 46.3 % of control. For “TTTATTTCCAAATTCACTTT (sugars l1 d17 l2, PS)”, the calcium oscillation score is 163 % of control. Same read-out and setting: next, “TTTATTTCCAAATTCACTTT (sugars l2 d16 l2, PS)”: 141 % of control. Still for that read-out and setting: next, “TTTATTTCCAAATTCACTTT (sugars l3 d14 l3, PS)”: ≥ 200 % of control; “TTTATTTCCAAATTCACTTT (sugars l4 d11 l5, PS)”: 138 % of control; “TTTATTTCCAAATTCACTTT (sugars l5 d10 l5, PS)”: ≥ 200 % of control. With “TTTATTTCCAAATTCACTTT (sugars l5 d11 l4, PS)”, the calcium oscillation score is 115 % of control. As for “TTTATTTCCAAATTCACTTT (sugars ldlllddddddddddlldll, PS)”, the calcium oscillation score was 83.1 % of control. Still for that read-out and setting: next, “TTTATTTCCAAATTCACTTT (sugars lldllddddddddddlldll, PS)”: 106 % of control; TTTCAACTCTTAGCAT (sugars l4 d8 l4, PS): 70.8 % of control; TTTCAACTCTTAGCATC (sugars l4 d9 l4, PS): 70.8 % of control. As to “TTTCAACTCTTAGCATCC (sugars l2 d12 l4, PS)”, the calcium oscillation score is 52.5 % of control. Still for that read-out and setting: next, “TTTCATCTACTTTTCAGC (sugars l4 d12 l2, PS)”: 39.4 % of control; “TTTCATGTTAAATCCCT (sugars l4 d10 l3, PS)”: 94.2 % of control; “TTTCCCCATTTATCCTT (sugars l4 d11 l2, PS)”: 87.4 % of control. Same read-out and setting: in the case of “TTTCCCCATTTATCCTTC (sugars l2 d14 l2, PS)” it was 49.4 % of control; in that of “TTTCCTGCAAATTCTCA (sugars l4 d10 l3, PS)”, 66.8 % of control; in that of “TTTCTCAATGTAACCTC (sugars l3 d10 l4, PS)”, 71.6 % of control. The same measure, in the same setting: in the case of TTTCTCTAATTGTCCAA (sugars l4 d9 l4, PS) it was 56.6 % of control; in that of “TTTCTCTCTTAACTTTATTT (sugars l4 d12 l4, PS)”, 90.4 % of control; in that of TTTGAAGTCCCGAGCC (sugars l3 d10 l3, PS), 22.4 % of control. On to “TTTGAAGTCCCGAGCCAAAG (sugars l3 d14 l3, PS)”, for which the calcium oscillation score was 0 % of control.

For the sequence TTTGAGTTGAGGGACC (sugars l3 d10 l3, PS), the calcium oscillation score was 0 % of control.

Regarding TTTGATAAAACATCCC (sugars l4 d8 l4, PS), the calcium oscillation score was 89 % of control.

For the sequence “TTTGCTTCACACACCAC (sugars l2 d12 l3, PS)”, the calcium oscillation score is 89 % of control. On the same count and under the same terms, in the case of “TTTGGAAAGATGAAATTTGC (sugars l3 d14 l3, PS)” it was 7.77 % of control. Same read-out and setting: next, TTTGGCGTTCTCGC (sugars l3 d8 l3, PS): 28.7 % of control; TTTGTAGACTATTT (sugars l3 d8 l3, PS): 90.7 % of control. The same measure, in the same setting: in the case of TTTGTAGACTATTTG (sugars l3 d9 l3, PS) it was 0 % of control; in that of TTTGTAGACTATTTGC (sugars l3 d10 l3, PS), 0 % of control. Turning to TTTGTCATCGCTTCCA (sugars l3 d10 l3, PS), the calcium oscillation score is 20.7 % of control.

Regarding “TTTTAACTCCCAACTCTTT (sugars l2 d13 l4, PS)”, the calcium oscillation score was 99.7 % of control. Same read-out and setting: in the case of “TTTTAATTAAATTTCTCCCT (sugars l4 d13 l3, PS)” it was 104 % of control; in that of “TTTTACCAATTTGCCTA (sugars l2 d11 l4, PS)”, 46.2 % of control.

As for “TTTTATTTCCTCCGCCA (sugars l2 d13 l2, PS)”, the calcium oscillation score was 18.5 % of control. With “TTTTCAAACACACCTTCAT (sugars l3 d12 l4, PS)”, the calcium oscillation score is 80.8 % of control. Turning to “TTTTCAAACACACCTTCATT (sugars l2 d14 l4, PS)”, the calcium oscillation score is 98.6 % of control.

Regarding “TTTTCCCAATTATTAACCC (sugars l3 d14 l2, PS)”, the calcium oscillation score was 71.4 % of control. Still for that read-out and setting: next, TTTTCTCAATGTAACCT (sugars l4 d9 l4, PS): 80.5 % of control; “TTTTCTCTCTTAACTTTATT (sugars l4 d12 l4, PS)”: 89 % of control. On to “TTTTCTTGTTCTAACCCC (sugars l2 d13 l3, PS)”, for which the calcium oscillation score is 50.1 % of control. Still for that read-out and setting: in the case of “TTTTTACCAATTTGCCT (sugars l2 d11 l4, PS)” it was 55.5 % of control; in that of “TTTTTATTCATAACTTTTCA (sugars l4 d12 l4, PS)”, 56.4 % of control; in that of “TTTTTCTCTCTTAACTTT (sugars l4 d10 l4, PS)”, 94.5 % of control. On the same count and under the same terms, in the case of “TTTTTCTCTCTTAACTTTA (sugars l4 d11 l4, PS)” it was 83.6 % of control.

On to “TTTTTCTCTCTTAACTTTAT (sugars l4 d12 l4, PS)”, for which the calcium oscillation score was 93.2 % of control. Same read-out and setting: next, “TTTTTCTTGTTCTAACCC (sugars l4 d12 l2, PS)”: 56.1 % of control; “TTTTTTAACTCCCAACTC (sugars l4 d10 l4, PS)”: 95.2 % of control.

In the case of “TTTTTTAACTCCCAACTCT (sugars l4 d13 l2, PS)”, the calcium oscillation score is 95.7 % of control. Take “TTTTTTAACTCCCAACTCTT (sugars l4 d14 l2, PS)”: the calcium oscillation score is 98.3 % of control. “TTTTTTATTCATAACTTTTC (sugars l4 d12 l4, PS)”: the calcium oscillation score was 63.8 % of control.
